For 22 compounds, IC50 results are on record in patent publication US8017612B2, “Piperazine compound and use thereof as a HCV polymerase inhibitor” (priority 2006, dated 2011).

pIC50: −log10 of the molar value.

In assay [1] the target is T1, HCV polymerase (NS5B) type 1b (Hepatitis C virus genotype 1b, UniProt P26663).
T1 construct: a region encoding NS5B (J Virol 1991 March, 65(3), 1105-13, 544 amino acids after deletion of 47 amino acids on the C-terminal); 6xHis (C); made in house; host or cells: Escherichia coli
Briefly: Assay of enzyme (HCV polymerase) inhibitory activity, type 1b enzyme. Type of assay: biochemical, HCV BK strain (type 1b). Put shortly:
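His-tagged, C-terminally truncated NS5B (BK strain, 1b; 0.5 μg/ml) incubated with compound 60 min at 25 °C on 3′UTR-derived substrate RNA (5 μg/ml), 50 μM ATP/GTP/CTP, 2 μM UTP plus [3H]UTP, pH 7.5. Acid-precipitated RNA counted; IC50 from radioactivity with and without compound.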

Assay [2] concerns the target T2, HCV polymerase (NS5B) type 1a (Hepatitis C virus genotype 1a, UniProt P26664).
T2 construct: made in house; host or cells: Escherichia coli (by the 'similar method' of the 1b enzyme)
Briefly: Assay of enzyme (HCV polymerase) inhibitory activity, type 1a enzyme. Type of assay: biochemical, HCV type 1a (cloned from the blood of patients). A digest of the protocol:
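His-tagged NS5B, C-terminal 47 residues deleted, type 1a at 1.5 μg/ml, with 5 μg/ml HCV 3′UTR substrate RNA, 50 μM ATP/GTP/CTP, 2 μM UTP plus [3H]UTP, pH 7.5 Tris, 5 mM MgCl2; 60 min at 25° C. TCA-precipitated RNA counted by scintillation; IC50 from radioactivity with vs. without compound.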

[3] abbreviates: HCV polymerase inhibitory activity (IC50), 1b, type 1b enzyme 0.5 μg/ml, 25° C., 60 min.
[4] abbreviates: HCV polymerase inhibitory activity (IC50), 1a, type 1a enzyme 1.5 μg/ml, 25° C., 60 min.
Where [5] appears, read: HCV polymerase inhibitory activity IC50, 1b, type 1b enzyme.
[6] abbreviates: HCV polymerase inhibitory activity IC50, 1a, type 1a enzyme.

For the compound `CC(C)(C)c1ccc(CNC(=O)[C@H]2CN(c3nc4cc[nH]c(=O)c4s3)CCN2S(=O)(=O)c2ccc(OC(F)(F)F)cc2)cc1` [Example 597, (R)-4-(4-oxo-4,5-dihydro-thiazolo[5,4-c]pyridin-2-yl)-1-(4-trifluoromethoxy-benzenesulfonyl)-piperazine-2-carboxylic acid 4-tert-butyl-benzylamide], the pIC50 in assay [1] (setting [3]) and in assay [2] (setting [4]) was greater than 7.00 throughout.
Consider `O=C(NCCCc1ccccc1)[C@H]1CN(c2cnc3cncnc3n2)CCN1S(=O)(=O)c1ccc(OC(F)(F)F)cc1` [Example 811, (R)-4-pteridin-7-yl-1-(4-trifluoromethoxy-benzenesulfonyl)-piperazine-2-carboxylic acid (3-phenyl-propyl)-amide], for which the pIC50 in assay [1] (setting [5]) and in assay [2] (setting [6]) was 6.00 to 7.00 in each case.
As for `CN(C)c1ccc(CNC(=O)C2CN(C(=O)CCNC(=O)OC(C)(C)C)CCN2S(=O)(=O)c2ccc(I)cc2)cc1` (centres unmarked) [Example 87, {3-[3-(4-dimethylamino-benzylcarbamoyl)-4-(4-iodo-benzenesulfonyl)-piperazin-1-yl]-3-oxo-propyl}-carbamic acid tert-butyl ester], the pIC50 in assay [1] (setting [3]) and in assay [2] (setting [4]) was less than 6.00 each time.
Consider `Cc1csc(N2CCN(S(=O)(=O)c3ccc(C(F)(F)F)cc3)[C@@H](C(=O)NCc3ccc(C(C)C)cc3)C2)n1` [Example 184, (R)-4-(4-methyl-thiazol-2-yl)-1-(4-trifluoromethyl-benzenesulfonyl)-piperazine-2-carboxylic acid 4-isopropyl-benzylamide], for which the pIC50 in assay [1] (setting [3]) and in assay [2] (setting [4]) was 6.00 to 7.00 throughout.
With `COC(=O)CCCC(=O)N1CCN(S(=O)(=O)c2ccc(C(F)(F)F)cc2)[C@@H](C(=O)NCc2ccc(C(C)C)cc2)C1` [Example 174, 5-[(R)-3-(4-isopropyl-benzylcarbamoyl)-4-(4-trifluoromethyl-benzenesulfonyl)-piperazin-1-yl]-5-oxo-pentanoic acid methyl ester], the pIC50 in assay [1] (setting [3]) and in assay [2] (setting [4]) was 6.00 to 7.00 each time.
On to `CCC(F)(F)c1ccc(CNC(=O)[C@H]2CN(C(=O)C3CC3)CCN2S(=O)(=O)c2ccc(OC(F)(F)F)cc2)cc1` [Example 610, (R)-4-cyclopropanecarbonyl-1-(4-trifluoromethoxy-benzenesulfonyl)-piperazine-2-carboxylic acid 4-(1,1-difluoro-propyl)-benzylamide], for which the negative logarithm of the IC50 (pIC50) in assay [1] (setting [3]) and in assay [2] (setting [4]) was 6.00 to 7.00 each time.
In the case of `CC(C)c1ccc(CNC(=O)[C@H]2CN(C(=O)Nc3ccncc3)CCN2S(=O)(=O)c2ccc(C(F)(F)F)cc2)cc1` [Example 347, (R)-4-(4-trifluoromethyl-benzenesulfonyl)-piperazine-1,3-dicarboxylic acid 3-(4-isopropyl-benzylamide) 1-pyridin-4-ylamide], the negative logarithm of the IC50 (pIC50) in assay [1] (setting [3]) and in assay [2] (setting [4]) was 6.00 to 7.00 in each case.
Turning to `O=C(NCc1ccc(OC(F)F)cc1F)[C@H]1CN(c2nc3nc(Cl)ncc3s2)CCN1S(=O)(=O)c1ccc(OC(F)(F)F)cc1` [Example 997, (R)-4-(5-chloro-thiazolo[4,5-d]pyrimidin-2-yl)-1-(4-trifluoromethoxy-benzenesulfonyl)-piperazine-2-carboxylic acid 4-difluoromethoxy-2-fluoro-benzylamide], the pIC50 in assay [1] (setting [5]) and in assay [2] (setting [6]) was greater than 7.00 throughout.
For the compound `CCc1ccc(S(=O)(=O)N2CCN(c3cnc(C(=O)O)cn3)C[C@@H]2C(=O)NCc2ccc(C(C)(C)C)cc2)cc1` [Example 524, (R)-3-(4-tert-butyl-benzylcarbamoyl)-4-(4-ethyl-benzenesulfonyl)-3,4,5,6-tetrahydro-2H-[1,2′]bipyrazinyl-5′-carboxylic acid], the pIC50 in assay [1] (setting [3]) and in assay [2] (setting [4]) was greater than 7.00 throughout.
In the case of `CN(C)c1ccc(CNC(=O)C2CN(C(=O)CN3CCCCC3)CCN2S(=O)(=O)c2ccc(I)cc2)cc1` (centres unmarked) [Example 102, 1-(4-iodo-benzenesulfonyl)-4-(2-piperidin-1-yl-acetyl)-piperazine-2-carboxylic acid 4-dimethylamino-benzylamide], the pIC50 in assay [1] (setting [3]) and in assay [2] (setting [4]) was less than 6.00 in each case.
Regarding `CC(=O)N1CCN(S(=O)(=O)c2ccc(C(C)C)cc2)[C@@H](C(=O)NCCc2cccnc2)C1` [Example 397, (R)-4-acetyl-1-(4-isopropyl-benzenesulfonyl)-piperazine-2-carboxylic acid (2-pyridin-3-yl-ethyl)-amide], the pIC50 in assay [1] (setting [3]) and in assay [2] (setting [4]) was less than 6.00 each time.
As to `CC(=O)N1CCN(S(=O)(=O)c2ccc(N(C)C)cc2)C(C(=O)NCc2ccc(C(F)(F)F)cc2)C1` (centres unmarked) [Example 92, 4-acetyl-1-(4-dimethylamino-benzenesulfonyl)-piperazine-2-carboxylic acid 4-trifluoromethyl-benzylamide], the pIC50 in assay [1] (setting [3]) and in assay [2] (setting [4]) was less than 6.00 throughout.
On to `CCCc1ccc(CNC(=O)[C@H]2CN(C(=O)Cn3cnnn3)CCN2S(=O)(=O)c2ccc(OC(F)(F)F)cc2)cc1` [Example 461, (R)-4-(2-tetrazol-1-yl-acetyl)-1-(4-trifluoromethoxy-benzenesulfonyl)-piperazine-2-carboxylic acid 4-propyl-benzylamide], for which the pIC50 in assay [1] (setting [3]) and in assay [2] (setting [4]) was greater than 7.00 each time.
As to `CCCc1ccc(CNC(=O)[C@H]2CN(c3nc(C(=O)O)c(CO)s3)CCN2S(=O)(=O)c2ccc(OC(F)(F)F)cc2)cc1` [Example 537, 5-hydroxymethyl-2-[(R)-3-(4-propyl-benzylcarbamoyl)-4-(4-trifluoromethoxy-benzenesulfonyl)-piperazin-1-yl]-thiazole-4-carboxylic acid], the negative-log IC50 (pIC50) in assay [1] (setting [3]) and in assay [2] (setting [4]) was greater than 7.00 throughout.
Take `COc1nnnc2nc(N3CCN(S(=O)(=O)c4ccc(OC(F)(F)F)cc4)[C@@H](C(=O)NCc4ccc(OC(F)(F)F)cc4)C3)sc12` [Example 1035, (R)-4-(4-methoxy-thiazolo[4,5-d][1,2,3]triazin-6-yl)-1-(4-trifluoromethoxy-benzenesulfonyl)-piperazine-2-carboxylic acid 4-trifluoromethoxy-benzylamide]: the pIC50 in assay [1] (setting [5]) and in assay [2] (setting [6]) was greater than 7.00 throughout.
On to `O=C(NCc1ccc(OC(F)(F)F)cc1)[C@H]1CN(c2nn3c(=O)c(C(F)(F)F)nnc3s2)CCN1S(=O)(=O)c1ccc(OC(F)(F)F)cc1` [Example 1031, (R)-4-(4-oxo-3-trifluoromethyl-4H-[1,3,4]thiadiazolo[2,3-c][1,2,4]triazin-7-yl)-1-(4-trifluoromethoxy-benzenesulfonyl)-piperazine-2-carboxylic acid 4-trifluoromethoxy-benzylamide], for which the pIC50 in assay [1] (setting [5]) and in assay [2] (setting [6]) was 6.00 to 7.00 in each case.
On to `O=C(NCc1ccc(OC(F)(F)F)cc1)[C@H]1CN(c2nn3ccc(=O)nc3s2)CCN1S(=O)(=O)c1ccc(OC(F)F)cc1` [Example 1058, (R)-1-(4-difluoromethoxy-benzenesulfonyl)-4-(7-oxo-7H-[1,3,4]thiadiazolo[3,2-a]pyrimidin-2-yl)-piperazine-2-carboxylic acid 4-trifluoromethoxy-benzylamide], for which the pIC50 in assay [1] (setting [5]) and in assay [2] (setting [6]) was greater than 7.00 each time.
In the case of `CC(=O)c1sc(N2CCN(S(=O)(=O)c3ccc(OC(F)(F)F)cc3)[C@@H](C(=O)NCc3ccc(OC(F)(F)F)cc3)C2)nc1C` [Example 978, (R)-4-(5-acetyl-4-methyl-thiazol-2-yl)-1-(4-trifluoromethoxy-benzenesulfonyl)-piperazine-2-carboxylic acid 4-trifluoromethoxy-benzylamide], the pIC50 in assay [1] (setting [5]) and in assay [2] (setting [6]) was greater than 7.00 throughout.
As for `Cc1ncc2sc(N3CCN(S(=O)(=O)c4ccc(OC(F)(F)F)cc4)[C@@H](C(=O)NCc4ccc(OC(F)(F)F)cc4)C3)nc2n1` [Example 908, (R)-4-(5-methyl-thiazolo[4,5-d]pyrimidin-2-yl)-1-(4-trifluoromethoxy-benzenesulfonyl)-piperazine-2-carboxylic acid 4-trifluoromethoxy-benzylamide], the pIC50 in assay [1] (setting [5]) and in assay [2] (setting [6]) was greater than 7.00 throughout.
In the case of `CC(C)c1ccc(CNC(=O)[C@H]2CN(c3ncc(C(=O)O)s3)CCN2S(=O)(=O)c2ccc(OC(F)(F)F)cc2)cc1` [Example 328, 2-[(R)-3-(4-isopropyl-benzylcarbamoyl)-4-(4-trifluoromethoxy-benzenesulfonyl)-piperazin-1-yl]-thiazole-5-carboxylic acid], the pIC50 in assay [1] (setting [3]) and in assay [2] (setting [4]) was greater than 7.00 each time.
Consider `O=C(NCc1ccc(OC(F)(F)F)cc1)[C@H]1CN(c2ccc3cnccc3n2)CCN1S(=O)(=O)c1ccc(OC(F)(F)F)cc1` [Example 771, (R)-4-[1,6]naphthyridin-2-yl-1-(4-trifluoromethoxy-benzenesulfonyl)-piperazine-2-carboxylic acid 4-trifluoromethoxy-benzylamide], for which the pIC50 in assay [1] (setting [5]) and in assay [2] (setting [6]) was greater than 7.00 throughout.
Turning to `CC(C)c1ccc(S(=O)(=O)N2CCN(C(=O)N(C)C)CC2C(=O)NCc2ccc(C(F)(F)F)cc2)cc1` (centres unmarked) [Example 59, 4-(4-isopropyl-benzenesulfonyl)-piperazine-1,3-dicarboxylic acid 1-dimethylamide 3-(4-trifluoromethyl-benzylamide)], the pIC50 in assay [1] (setting [3]) and in assay [2] (setting [4]) was less than 6.00 throughout.

The pIC50 is the IC50 on a negative log10 scale, so that one unit is a factor of ten.
